The text below walks through data of patent US5532267A, “Amidinonaphthyl furancarboxylate derivatives and acid addition salts therof” (Torii & Co., Ltd., priority 1992, dated 1996).

Assay [1] deals with rabbit serum albumin (RSA) nephritis. Briefly: Effect of TO-195 on rabbit serum albumin (RSA) nephritis. The class given is in vivo, rat (Sprague Dawley). To be noted: oral. An excerpt:
About 90% of human glomerular nephritis has been described as being immune complex nephritis which is caused by deposition in the glomeruli of immune complexes formed by the binding of antigens with antibodies in the blood. Effectiveness in treating rabbit serum albumin (RSA) nephritis in rats, which is known as an experimental model of nephritis caused by antigen-antibody reaction (Folia pharmacol. japon, 78: 491-499 (1981)), is shown below:
Sprague Dawley rats were immunized by subcutaneous injection in the back of 3 mg rabbit serum albumin in complete Freud's adjuvant (CFA). Two weeks after the subcutaneous injection, the rats were administered 1 mg of RSA (in saline) into the tail vein every other day for 10 weeks. Seven weeks after the first subcutaneous injection, the rats were also boosted with 3 mg RSA as in the first subcutaneous injection. The control group was injected with saline. Two weeks after the first IV injection, rats with more than 100 mg/day proteinurea after IV administration of RSA were divided into two groups each consisting of five rats. One group was orally given 30 mg/kg of TO-195 (in a suspension in water) twice a day for 20 days. The other group (untreated) and the control group were given distilled water p.o. (oral administration). The index of effectiveness of TO-195 was protein concentration in urine.

Assay [2] deals with adjuvant arthritis. Briefly: Effectiveness in treating adjuvant arthritis (Mycobacterium butyricum). The class given is in vivo, rat. To be noted: 60 mg/kg, oral, day -1 to day 13. As for the experimental part: Adjuvant arthritis is known as a representative model of autoimmune diseases and is a effective means of testing agents to treat human rheumatoid arthritis (Encyclopedia of Immunology, edited by I. M. Roitt, Academic Press, 1992; Otterness, I. G., et al., J. of Rheumatology (1991), volume 18, pages 505-511),
The method of experiment was as follows. A 0.6% Mycobacterium butyricum liquid paraffin suspension, 0.1 ml/animal, was administered to a rat at a subcutaneous site of left hind-limb sole to induce adjuvant arthritis. The present compound was orally administered (in the form of a suspension in water) consecutively from 1 day before the induction to 13 days after the induction. The efficacy of the present compound on adjuvant arthritis was evaluated by examining the swelling accompanied by red spots and subcutaneous knots at the fore-limb, hind-limb, tail, ear and periphery of eye with the lapse of days (on the 8th, 10th, 12th, 14th, 16th and 18th days after adjuvant administration), expressing the results in terms of scores according to the method of F. D. Wood et al. (Int. Arch. Allergy (1969), volume 35, pages 456-467), and calculating the percentage inhibition relative to the control group. Thus, the higher value of percentage inhibition indicates the higher effectiveness.

In assay [3] the target is T1, trypsin (Bos taurus, UniProt P00760).
T1 sequence (P00760 24-246): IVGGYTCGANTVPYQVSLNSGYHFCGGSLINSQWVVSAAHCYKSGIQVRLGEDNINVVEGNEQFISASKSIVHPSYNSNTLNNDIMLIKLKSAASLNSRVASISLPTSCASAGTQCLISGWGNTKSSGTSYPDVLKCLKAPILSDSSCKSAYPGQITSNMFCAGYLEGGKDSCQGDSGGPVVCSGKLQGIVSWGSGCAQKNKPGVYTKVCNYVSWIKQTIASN
Nature of the assay: anti-trypsin activity, hydrolysis of TAME (tosylarginine methyl ester). Type of assay: biochemical.

Assay [4] relates to Masugi's nephritis. Nature of the assay: Effectiveness in treating Masugi's nephritis (experimental glomerulonephritis), protein in urine. The class given is in vivo, rat. To be noted: po, 30 mg/kg. As to the method: […] […] As the index to effectiveness, the protein concentration in urine was determined. That is, when inflammation develops in the kidney, it causes damage to renal tubules, etc., and a resultant increase in protein concentration in urine.

Molecules are shown by their SMILES. pIC50: −log10 of the molar value.

Consider `Cl.N=C(N)c1ccc2cc(OC(=O)c3ccc(CNC(=O)CCCC(=O)O)o3)ccc2c1` [Example 22, 6-Amidino-2-naphthyl 5-(4-carboxybutyrylaminomethyl)furan-2-carboxylate hydrochloride], for which the “Protein concentration in urine” value in assay [1] (30 mg/kg twice a day, 20 days, mean ± standard deviation, five animals, untreated 385.9 ± 187.23, control 8.5 ± 2.62) was determined as 152.1 ± 49.11 mg/mL. Moreover, in assay [1] (30 mg/kg×2/day), the “N-acetyl-β-D-glucosamineidase excretion (in words)” value is “decreased”, the “alkaline phosphatase excretion (in words)” value is on record as “decreased” and the “urinary protein excretion (in words)” value was “decreased urinary protein excretion”. Also, the “Percentage inhibition (arthritis score)” value in assay [2] is reported as 97.3%. Moreover, the “trypsin inhibition (in words)” value in assay [3] is “inhibitor”. Besides, the pIC50 in assay [3] (hydrolysis of TAME, read-out: Try: molar concentration inhibiting 50% of enzyme activity (IC50)) is 6.37. Further, in assay [4], the “Protein concentration in urine” value was 3.0 ± 2.0 mg/mL.
